This note sets out measurements from patent US6573263B2, “Substituted imidazotriazinones” (Bayer Aktiengesellschaft, priority 2000, dated 2003).

One data set concerns rats. As to the kind of experiment: Object recognition test (memory test). The class given is in vivo. The conditions noted are these: rat, dose of 1.0 mg/kg of body weight p.o., 24 hours interval. How it is done:
The object recognition test is a memory test. It measures the ability of rats (and mice) to differentiate between known and unknown objects and is therefore suitable for the determination of the memory-improving action of the compounds according to the invention.
The test is carried out as described (Blokland et al. NeuroReport 1998, 9, 4205-4208; Ennaceur, A., Delacour, J., Behav. Brain Res. 1988, 31, 47-59; Ennaceur, A., Meliani, K., Psychopharmacology 1992, 109, 321-330; Prickaerts, et al. Eur. J. Pharmacol. 1997, 337, 125-136).
In a first passage, a rat in an otherwise empty relatively large observation arena is confronted with two identical objects. The rat will extensively examine, i.e. sniff and touch, both objects. In a second passage, after an interval of 24 hours, the rat is again tested in the observation arena. One of the known objects is now replaced by a new, unknown object. When a rat recognizes the known object, it will especially examine the unknown object. After 24 hours, a rat, however, has normally forgotten which object it has already examined in the first passage, and will therefore inspect both objects equally intensively. The administration of a substance having learning- and memory-improving action will lead to a rat recognizing the object already seen 24 hours beforehand, in the first passage, as known. […]

The next data set addresses T1, PDE 2 (UniProt P14099).
T1 sequence (P14099 1-921): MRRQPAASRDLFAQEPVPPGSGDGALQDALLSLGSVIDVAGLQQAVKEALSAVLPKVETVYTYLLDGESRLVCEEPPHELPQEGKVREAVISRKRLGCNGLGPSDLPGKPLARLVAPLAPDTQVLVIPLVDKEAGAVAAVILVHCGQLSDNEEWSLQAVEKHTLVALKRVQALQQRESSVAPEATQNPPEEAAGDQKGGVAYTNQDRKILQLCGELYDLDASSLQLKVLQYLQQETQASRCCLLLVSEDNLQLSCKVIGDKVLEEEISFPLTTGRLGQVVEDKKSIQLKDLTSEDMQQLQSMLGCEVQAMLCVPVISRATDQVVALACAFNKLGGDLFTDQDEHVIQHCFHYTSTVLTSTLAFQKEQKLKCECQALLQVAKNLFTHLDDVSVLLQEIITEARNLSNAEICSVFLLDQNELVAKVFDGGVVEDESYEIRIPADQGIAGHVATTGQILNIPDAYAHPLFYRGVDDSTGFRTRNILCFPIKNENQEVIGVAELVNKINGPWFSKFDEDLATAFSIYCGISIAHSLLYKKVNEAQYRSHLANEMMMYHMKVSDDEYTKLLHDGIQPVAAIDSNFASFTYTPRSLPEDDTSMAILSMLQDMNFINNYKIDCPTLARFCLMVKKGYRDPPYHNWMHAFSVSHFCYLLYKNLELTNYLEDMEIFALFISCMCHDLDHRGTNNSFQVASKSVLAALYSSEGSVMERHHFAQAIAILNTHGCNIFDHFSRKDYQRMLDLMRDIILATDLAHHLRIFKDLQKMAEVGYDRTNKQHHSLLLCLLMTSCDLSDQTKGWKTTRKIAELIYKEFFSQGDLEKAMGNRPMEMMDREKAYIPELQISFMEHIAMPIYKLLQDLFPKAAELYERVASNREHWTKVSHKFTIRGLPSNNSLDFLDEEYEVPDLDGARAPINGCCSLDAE
As to the kind of experiment: Measurement of the PDE inhibition (PDE 2, [3H]-cAMP substrate, cGMP prestimulation). The class given is biochemical, porcine or bovine. The conditions noted are these: cGMP-stimulated PDE 2. The method, then:
The cGMP-stimulable PDE (PDE 2), the cGMP-inhibitable PDE (PDE 3) and the cAMP-specific PDE (PDE 4) were isolated either from porcine or bovine heart myocardium. The Ca^2+ calmodulin-stimulable PDE 1 was isolated from porcine aorta, porcine brain or preferably from bovine aorta. The cGMP-specific PDE (PDE 5) was preferably obtained from porcine small intestine, porcine aorta, human blood platelets and preferably from bovine aorta. Purification was carried out by anion exchange chromatography on mono Q^R Pharmacia essentially according to the method of Hoey, M; Houslay, M. D., Biochem. Pharmacol. 1990, 40, 193-202 and Lugman et al. Biochem. Pharmacol. 1986, 35, 1743-1751.
The enzyme activity was determined in a test batch of 100 μl in 20 mM tris/HCl buffer pH 7.5 which contains 5 mM MgCl2, 0.1 mg/ml of bovine serum albumin and either 800 Bq of [^3H]-cAMP or [^3H]-cGMP. […] 100 μl of the reaction batch are separated on the HPLC and the cleavage products are determined quantitatively online using a flow-through scintillation counter. The substance concentration at which the reaction rate is decreased by 50% is measured. […]
Test substances were dissolved in 100% DMSO (10 mM), and this solution was further diluted with H2O (highest final concentration in the test: 10 μM). […] After the beads had settled (about 15 min), the plate was measured in a beta counter.

In data set [1] the test system is intracellular neuronal cGMP concentration in primary rat brain cell cultures. As to the kind of experiment: Measurement of the increase in the intracellular neuronal cGMP concentration in cell cultures (SNP prestimulation). In kind it is cell-based. The conditions noted are these: parallel incubation of neurons with SNP, 37° C., 20 min. The text has this: PDE 2 inhibitors increase the intracellular neuronal cGMP concentration after prestimulation of the guanylate cyclase using 10^−4 M sodium nitroprusside (SNP) in primary rat brain cell cultures.
Rat embryos were decapitated and the heads were transferred to preparation dishes. The scalp and cranium were removed, and the exposed brains were transferred to a further Petri dish. With the aid of a binocular microscope and two pairs of forceps, hippocampi were isolated from the cortex and cooled to 4° C. using ice. This preparation and the isolation of the hippocampal neurons were then carried out according to a standard protocol using the papain dissociation system (Worthington Biochemical Corporation, Lakewood, N.J. 08701, USA) (Huettner et al. J. Neurosci. 1986, 6, 3044-3060). The mechanically isolated neurons were cultured under standard conditions (37° C., 5% CO2) to 150,000 cells/hole in 200 μl of neurobasal medium/hole (neurobasal; Gibco/BRL; 2 mM L-glutamine; in the presence of penicillin/streptomycin) for 7 days in 96-hole plates (pretreated with poly-D-lysine 100 μg/ml for 20 min). After 7 days, the medium was removed and the cells were washed with HBS buffer (Gibco/BRL). […] The cells were then lysed in 200 μl of lysis buffer (cGMP kit code RPN 226; from Amersham Pharmacia Biotech.) and the cGMP concentration was measured according to the instructions of the manufacturer. […]

Bounds are passed on as bounds.

Take `COc1ccc(Cc2nn3c([C@@H](CCCc4ccccc4)[C@@H](C)O)nc(C)c3c(=O)[nH]2)cc1OC` (single isomer, unassigned) [Example 16]: the “effect in the object recognition test” value with rats is “shows an effect”.
In the case of `COc1ccc(Cc2nn3c(C(CCCc4ccccc4)C(C)=O)nc(C)c3c(=O)[nH]2)cc1` (stereo not shown) [Example 2, 7-(1-Acetyl-4-phenylbutyl)-2-(4-methoxybenzyl)-5-methylimidazo[5,1-f][1,2,4]triazin-4(3H)-one], the melting point (usually the temperature, or range, at which the solid turns liquid) was determined as 138 °C. Also, the IC50 (as a rule, the midpoint of a concentration-inhibition curve) against PDE 2 was determined as 10 nM.
Consider `COc1ccc(Cc2nn3c(C(CCCc4ccccc4)C(C)O)nc(C)c3c(=O)[nH]2)cc1OC` (stereo not shown) [Example 15, 2-(3,4-Dimethoxybenzyl)-7-[1-(1-hydroxyethyl)-4-phenylbutyl]-5-methylimidazo-[5,1-f][1,2,4]triazin-4(3H)-one], for which the “concentration from which a marked increase in the intracellular cGMP level was seen” value in data set [1] is at least 100 nM.
